From paper PMC7351765, “Gastrin releasing peptide receptor targeted nano-graphene oxide for near-infrared fluorescence imaging of oral squamous cell carcinoma” (Scientific Reports, 2020)

Legend:
GRPR on HSC-3 cells = target: T1, GRPR on HSC-3 cells (Homo sapiens, UniProt P30550); experiment: Specificity binding (blocking) assay, NIR fluorescence microscopy; type: cell-based; conditions: 37 °C
T1 construct: endogenous in cells; host or cells: HSC-3 (human tongue squamous cell carcinoma)
Description: The binding specificities of AF750-6Ahx-Sta-BBN were determined with HSC-3 cells of human oral tongue squamous cell carcinoma using previously described methods. […] To determine the binding affinity of AF750-6Ahx-Sta-BBN in HSC-3, cells were first incubated with BBN (1–14), then added increasing concentrations of AF750-6Ahx-Sta-BBN (0.005–50 nM). Cells were washed after 50 min incubation and examined by flow cytometry. The binding affinity to GRPR is shown in Fig. 7, and plotted as the fluorescence intensity as function of the AF750-6Ahx-Sta-BBN concentration (Fig. 7B).
Figure 6 The specificity binding assay of AF750-6Ahx-Sta-BBN to GRPR on HSC-3 cells at 37 °C. The scale bar is 30 μm.

HSC-3 cells [1] = experiment: Time-dependent cell uptake, flow cytometry; type: cell-based, human; conditions: HSC-3, 2 × 10^6 cells, 37 °C, performed three times
Description: (§1) The time-dependent experiment was carried out on HSC-3 cells for both AF750-6Ahx-Sta-BBN and NGO-BBN-AF750. […] With increase of incubation time, cells uptake increased, and at the first 15 min, we observed a rapid binding of up to 80%. […] The cell uptake was 83 ± 15% and 89 ± 29% (AF750-6Ahx-Sta-BBN) and 85 ± 15% and 96 ± 20% (NGO-BBN-AF750) at 30 min and 60 min, respectively. We further conducted confocal laser scanning microscope experiments to evaluate the internalization of AF750-6Ahx-Sta-BBN and NGO-BBN-AF750 into HSC-3 cells and HOK cells. Blue fluorescence (Excitation, 460 nm) was used to represent the nuclei of HSC-3 cells. Red (Excitation, 750 nm) channel represents the fluorescence signal of AF750. […] While AF750-6Ahx-Sta-BBN is a GRPR antagonist to the HSC-3, NGO-BBN-AF750 may be internalized into HSC-3 cells via the combined interaction of BBN binding and the endocytosis of the nanoparticle. Evaluating nanotoxicity of NGO-BBN-AF750 was a part of our experimental design.
HSC-3 cells were seeded into 3.5 cm^2 culture dish at a density of 2 × 10^6, next cells were incubated with AF750-6Ahx-Sta-BBN or NGO-AF750-BBN at 37 °C for 15, 30, 60 and 120 min, respectively. Then, cells were washed three times with chilled PBS and harvested for flow cytometry measurements. Experiments were performed three times. For internalization studies, HSC-3 cells were cultured in 24-well plates at 2 × 10^4 cells/well and grown for 24 h. Next, the original medium was replaced with fresh medium containing 50 nM AF750-6Ahx-Sta-BBN or NGO-BBN-AF750. The cells were then incubated for 4 h. After washing the cells three times with PBS, 2.5% paraformaldehyde was used to fix the cells. Then DAPI (Excitation, […]) was used to stain the nuclei of the cells. Finally, the cells were visualized under OLYMPUS FV1200 confocal laser scanning microscope (Olympus, Osaka, Japan). In addition, HOK cells were used as a GRPR-negative control group and cultured with NGO-BBN-AF750, the above experiment was performed and compared to the HSC-3 cells.

HSC-3 cells [2] = experiment: Internalization study, confocal laser scanning microscopy; type: cell-based, human; conditions: HSC-3, 50 nM probe, 4 h, DAPI nuclear stain
Description: as §1
HSC-3 cells were seeded into 3.5 cm^2 culture dish at a density of 2 × 10^6, next cells were incubated with AF750-6Ahx-Sta-BBN or NGO-AF750-BBN at 37 °C for 15, 30, 60 and 120 min, respectively. Then, cells were washed three times with chilled PBS and harvested for flow cytometry measurements. Experiments were performed three times. […]

GRPR = target: T2, GRPR (Homo sapiens, UniProt P30550); experiment: Immunofluorescence assay of paraffin tissue sections with the fluorescent probe; conditions: 4-µm paraffin sections, probe 10 min in the dark, ImageJ quantitation
T2 construct: The paraffin-embedded samples, obtained from the Department of Pathology, Stomatology Hospital of Shanxi Medical University, were cut into 4-µm slices; from tissue; host or cells: paraffin-embedded OSCC tissue and normal oral mucosa sections from patients
Description: We analyzed the expression levels of GRPR in primary OSCC sections and the normal tissue sections using AF750-6Ahx-Sta-BBN immunofluorescence assay.
The paraffin-embedded samples, obtained from the Department of Pathology, Stomatology Hospital of Shanxi Medical University, were cut into 4-µm slices. Then tissue blocks were treated with xylene and dehydrated using a graded ethanol series. Following that, the sections were heated for antigen retrieval and incubated in 3% H2O2 to block endogenous peroxidase. The BSA was added and incubated at 37 °C for 30 min. After that, BSA was removed and AF750-6Ahx-Sta-BBN was added and incubated for 10 min in the dark. The slides were observed and imaged using an inverted Olympus fluorescence microscope (Olympus Corp., Osaka, Japan). Quantitative analysis of GRPR expression was performed using ImageJ (https://imagej.nih.gov/ij/). Each patient received written informed consent before the study.

[3] = test system: GRPR overexpressed in a prostate cancer PC-3 cell line; conditions: cited from earlier work
Text: AF750-6Ahx-Sta-BBN is a GRPR antagonist peptide analog.

T1 sequence (P30550 whole entry): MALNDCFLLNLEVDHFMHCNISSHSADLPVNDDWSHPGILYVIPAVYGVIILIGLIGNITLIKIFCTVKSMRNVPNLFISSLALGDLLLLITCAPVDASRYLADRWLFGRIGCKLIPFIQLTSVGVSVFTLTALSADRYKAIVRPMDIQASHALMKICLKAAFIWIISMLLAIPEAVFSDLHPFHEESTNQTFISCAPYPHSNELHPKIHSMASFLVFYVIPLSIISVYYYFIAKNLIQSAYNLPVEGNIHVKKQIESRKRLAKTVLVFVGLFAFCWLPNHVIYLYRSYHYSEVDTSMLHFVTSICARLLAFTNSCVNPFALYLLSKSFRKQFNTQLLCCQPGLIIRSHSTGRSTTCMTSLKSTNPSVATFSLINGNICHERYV
T2 sequence (P30550 whole entry): as above

-DPhe-Gln-Trp-Ala-Val-Gly-His-Sta-Leu-NH2 [AF750-6Ahx-Sta-BBN, GRPR-specific Alexa Fluor 750 labeled BBN antagonist peptide; Sta-BBN conjugated to AF750 via 6-aminohexanoic acid linker]
NIR fluorescence of cells, blocking group (GRPR on HSC-3 cells; HSC-3 cells incubated with excessive BBN (1–14) for 10 min before the probe): no fluorescence signal
NIR fluorescence of cells, uptake group (GRPR on HSC-3 cells; HSC-3 cells incubated with probe, no blocking): strong NIR fluorescence signals
binding in the first 15 min (HSC-3 cells [1]; 15 min): up to 80%
cell uptake at 30 min (HSC-3 cells [1]; 30 min): 83 ± 15%
cell uptake at 60 min (HSC-3 cells [1]; 60 min): 89 ± 29%
cellular localisation / internalization (HSC-3 cells [2]): observed on the membrane of HSC-3
fluorescence intensity increase, OSCC tissue versus normal oral mucous tissue (GRPR): 2.5 fold
binding affinity and specificity to GRPR [3]: high binding affinity and specificity
